# Reference: US7208314B2, “Compositions and methods for drug delivery using pH sensitive molecules” (priority 2002, dated 2007)
# Ends that are not written are not given here.
# Assays:
# [1] = 15 mM sodium acetate pH 5 buffer
# Procedure: The absorbance of the solution at 225 nm, which is the wavelength at which enol ethers absorb (Kresge, A. J.; Sagatys, D. S.; Chen, H. L. J. Am. Chem. Soc. 1977, 99, 7228) was measured over time.
# The absorbance of the solution at 225 nm was measured as a function of time.
# [2] = tested on: 3T3 mouse embryonic fibroblast cells; experiment: In vitro transfection with DNA-PLL-KL3 and dimethylmaleamic KL3, luciferase expression; type: cell-based
# Procedure: To a complex of plasmid DNA pCIluc (10 μg/mL, 0.075 mM in phosphate, 2.6 μg/μL pCIluc; prepared according to Danko, I., Williams, P., Herweijer, H. Zhang, G., Latendresse, J. S., Bock, I., Wolff, J. A. Hum. Mol. Genetics 1997, 6, 1435.) and poly-L-lysine (40 μg/mL) in 0.5 mL of 5 mM HEPES pH 7.5 was added succinylated poly-L-lysine (34,000 MW, Aldrich Chemical), 2,3-dimethylmaleamic melittin and 2,3-dimethylmaleamic KL3. The DNA-poly-L-lysine-2,3-dimethylmaleamic peptide complexes were then added (200 μL) to wells containing 3T3 mouse embryonic fibroblast cells in 290 mM glucose and 5 mM HEPES buffer pH 7.5. After 1.5 h, the glucose media was replaced with Dubelco's modified Eagle Media and the cells were allowed to incubate for 48 h. The cells were then harvested and then assayed for luciferase expression as previously reported (Wolff, J. A., Malone, R. W., Williams, P., Chong, W., Acsadi, G., Jani, A. and Felgner, P. L. Direct gene transfer into mouse muscle in vivo. Science, 1465–1468, 1990.). A Lumat LB 9507 (EG&G Berthold, Bad-Wildbad, Germany) luminometer was used. The amount of transfection was reported in relative light units and is the average transfection for two separate wells of cells.
# [3] = Hemolysis assay: melittin or KL3 blocked by anionic polymer or dimethylmaleic anhydride; type: cell-based; details: pH 7.5; 30 minutes, 37 C; read-out: Percent hemolysis
# Procedure: The membrane-disruptive activity of the peptide melittin and subsequent blocking of activity by anionic polymers was measured using a red blood cell (RBC) hemolysis assay. RBCs were harvested by centrifuging whole blood for 4 min. They were washed three times with 100 mM dibasic sodium phosphate at the desired pH, and resuspended in the same buffer to yield the initial volume. They were diluted 10 times in the same buffer, and 200 uL of this suspension was used for each tube. This yields 10 ? 8 RBCs per tube. Each tube contained 800 uL of buffer, 200 uL of the RBC suspension, and the peptide with or without polymer. Each sample was then repeated to verify reproducibility. The tubes were incubated for 30 minutes in a 37 C water bath. They were spun for 5 min at full speed in the microcentifuge. Lysis was determined by measuring the absorbance of the supernatant at 541 nm, reflecting the amount of hemoglobin that had been released into the supernatant. Percent hemolysis was calculated assuming 100% lysis to be measured by the hemoglobin released by the red blood cells in water; controls of RBCs in buffer with no peptide were also run.
# [4] = tested on: cells; type: cell-based; details: for Relative Light Units (luciferase expression): pCIluc DNA/poly-L-lysine complex plus 40 μg modified lipid, 48 h; for Relative Light Units relative to poly-L-lysine (no lipid): value in parentheses
# [5] = tested on: red blood cells; experiment: Blood lysis experiment on melittin conjugated to microspheres via ketal; type: cell-based
# Procedure: The microspheres were taken up in H2O (500 μL) and partitioned into five 100 μL samples. Four of the samples were diluted to 1000 μL with sodium phosphate buffer (100 mM) at pH 7.5, 6.0, 5.5, and 5.0. Samples were held at 37° C., spun down, and 150 μL aliquots taken at 30 min, 60 min, 90 min, and 16 hrs. A portion of each sample (100 μL) was diluted with sodium phosphate buffer (400 μL, pH 7.5) and added to red blood cells (100 μL, pH 7.5). Red blood cell lysis was measured after 10 min by measuring the absorbance at 541 nm. A control sample was also measured in which 100% of the red blood cells had been lysed with melittin alone.
# The fifth 100 μL sample was further divided into 25 μL samples, three of which were diluted to 250 μL with sodium phosphate buffer (100 mM) at pH 7.5, 6.0, and 5.0. The samples were held at 37° C. for 30 min, spun down and the supernatant removed, and resuspended in 2.5 M NaCl solution (50 μL) and mixed. After 10 min the microspheres were spun down and the supernatant removed. The samples were added to red blood cells (500 μL, 100 mM) and the absorbance was measured at 541 nm.
# [6] = tested on: HELA cells; experiment: Endosome disruption assay (FITC-dextran, propidium iodide); type: cell-based; details: 50 μg
# Procedure: HeLa cells were plated in 6-well tissue culture dishes containing microscope slide coverslips and grown in Delbecco's Modified Eagle's Medium (DMEM)+10% fetal calf serum+penn/strep for 24–48 hours until 30–60% confluent. […] After 25 min, media containing FITC-dextran±melittin was removed, the cells were washed twice with 1 ml 37° C. DMEM lacking FITC-dextran and melittin, and cells were incubated for an additional 35 min at 37° C. in 1 ml fresh DMEM. In order to assess possible cell lysis caused by melittin, propidium iodide was added for the final 5 min of incubation. […] However, if the plasma membrane has been damaged, propidium iodide enters the cell where it will brightly stain the nucleus. To process slides for analysis, cells were washed 3 times with cold phosphate buffered saline (PBS), fixed in PBS+4% formaldehyde for 20–30 min at 4° C., and washed again 3 times with cold PBS. Excess liquid was drained from coverslips which were then mounted onto glass slides. Fluorescence was then analyzed on a Zeiss LSM510 confocal microscope. FITC was excited by a 488 nm argon laser and fluorescence emission was detected by a long pass 505 nm filter. […] For cells incubated with unmodified melittin near 100% cell death was observed as determined by propidium iodide staining of nuclei and loss of cells from the sample.
# [7] = Kinetics of conversion of dimethylmaleamic modified amines to amines at pH 5 (trinitrobenzenesulfonate); type: physicochemical
# Procedure: Dimethyl maleamic modified poly-L-lysine (10 mg/mL) was incubated in 10 mM sodium acetate buffer pH 5. At various times, aliquots (10 μg) were removed and added to 0.5 mL of 100 mM borax solution containing 0.4 mM trinitrobenzenesulfonate. A half an hour later, the absorbance of the solution at 420 nm was measured. To determine the concentration of amines at each time point, the extinction coefficient was determine for the product of trinitrobenzenesulfonate and poly-L-lysine. Using this extinction coefficient we were able to calculate the amount of amines and maleamic groups at each time point. A plot of ln (At/A0) as a function of time was a straight line whose slope is the negative of the rate constant for the conversion of maleamic acid to amine and anhydride, where At is the concentration of maleamic acid at a time t and A0 is the initial concentration of maleamic acid. For two separate experiments we calculated rate constants of […] which correspond to half lives of roughly 10 and 4 minutes respectively.
# Dimethyl maleamic modified KL3 (0.1 mg/mL) was incubated in 40 mM sodium acetate buffer pH 5 and 1 mM cetyltrimetylammonium bromide. At various times, aliquots (10 μg) were removed and added to 0.05 mL of 1 M borax solution containing 4 mM trinitrobenzenesulfonate. A half an hour later, the absorbance of the solution at 420 nm was measured. […]
compound,measurement,setting,value
"glycolic acid ethoxylate(4 units) 4-tert-buty-1,4-cyclohexadiene ether",rate constant of enol ether hydrolysis,[1],0.0159 min⁻¹
KLLKLLLKLWLKLLKLLLKLL [KL3],Relative Light Units (luciferase expression),"[2]; pCIluc DNA/poly-L-lysine complex plus named additive, 48 h, average of two wells",261 Relative Light Units
same,Relative Light Units relative to Succinylated poly-L-lysine,[2]; value in parentheses,0.04
same,hemolysis,[3],86%
"CCCCCCCC/C=C\CCCCCCCC(=O)OC[C@H](COP(=O)(O)OCCNC(=O)/C(C)=C(/C)C(=O)O)OC(=O)CCCCCCC/C=C\CCCCCCCC [2,3-dimethylmaleamic-modified DOPE]",Relative Light Units (luciferase expression),[4],243359 Relative Light Units
same,Relative Light Units relative to poly-L-lysine (no lipid),[4],40
"Melittin Conjugated to Microspheres: melittin attached to carboxylic acid modified microspheres via Di-(2-methyl-4-hydroxymethyl-1,3-dioxolane)-1,4-benzene ketal",A541 (red blood cell lysis),"[5]; 30 min pH 5.0, 37° C.",0.659
same,A541 (red blood cell lysis),"[5]; 30 min pH 5.5, 37° C.",0.609
same,A541 (red blood cell lysis),"[5]; 30 min pH 6.0, 37° C.",0.326
same,A541 (red blood cell lysis),"[5]; 30 min pH 7.5, 37° C.",0.026
same,A541 (red blood cell lysis),"[5]; 60 min pH 5.0, 37° C.",0.730
same,A541 (red blood cell lysis),"[5]; 60 min pH 5.5, 37° C.",0.526
same,A541 (red blood cell lysis),"[5]; 60 min pH 6.0, 37° C.",0.212
same,A541 (red blood cell lysis),"[5]; 60 min pH 7.5, 37° C.",0.027
same,A541 (red blood cell lysis),"[5]; 90 min pH 5.0, 37° C.",0.892
same,A541 (red blood cell lysis),"[5]; 90 min pH 5.5, 37° C.",0.640
same,A541 (red blood cell lysis),"[5]; 90 min pH 6.0, 37° C.",0.390
same,A541 (red blood cell lysis),"[5]; 90 min pH 7.5, 37° C.",0.036
same,A541 (red blood cell lysis),"[5]; 16 hrs pH 5.0, 37° C.",1.163
same,A541 (red blood cell lysis),"[5]; 16 hrs pH 5.5, 37° C.",0.796
same,A541 (red blood cell lysis),"[5]; 16 hrs pH 6.0, 37° C.",0.354
same,A541 (red blood cell lysis),"[5]; 16 hrs pH 7.5, 37° C.",0.065
same,time of rapid release of modified peptide,[5]; all acidic pH levels tested,< 30 min
same,release of modified peptide from the microsphere,[5]; pH 7.5,not released
same,A541 (red blood cell lysis),"[5]; second experiment, 30 min pH 5.0 supernatant",0.685
same,A541 (red blood cell lysis),"[5]; second experiment, 30 min pH 6.0 supernatant",0.213
same,A541 (red blood cell lysis),"[5]; second experiment, 30 min pH 7.5 supernatant",0.053
same,A541 (red blood cell lysis),"[5]; second experiment, pH 5.0, 2.5 M NaCl wash",0.101
same,A541 (red blood cell lysis),"[5]; second experiment, pH 6.0, 2.5 M NaCl wash",0.162
same,A541 (red blood cell lysis),"[5]; second experiment, pH 7.5, 2.5 M NaCl wash",0.087
"CCCCCCCC/C=C\CCCCCCCC(=O)OCC(COC(=O)/C(C)=C(/C)C(=O)O)OC(=O)CCCCCCC/C=C\CCCCCCCC (centres unmarked) [2,3-dimethylmaleamic-modified DOG]",Relative Light Units (luciferase expression),[4],193624 Relative Light Units
same,Relative Light Units relative to poly-L-lysine (no lipid),[4],32
"CC[C@H](C)[C@H](NC(=O)CN)C(=O)NCC(=O)N[C@@H](C)C(=O)N[C@H](C(=O)N[C@@H](CC(C)C)C(=O)N[C@@H](CCCCN)C(=O)N[C@H](C(=O)N[C@@H](CC(C)C)C(=O)N[C@H](C(=O)N[C@H](C(=O)NCC(=O)N[C@@H](CC(C)C)C(=O)N1CCC[C@H]1C(=O)N[C@@H](C)C(=O)N[C@@H](CC(C)C)C(=O)N[C@H](C(=O)N[C@@H](CO)C(=O)N[C@@H](Cc1c[nH]c2ccccc12)C(=O)N[C@H](C(=O)N[C@@H](CCCCN)C(=O)N[C@@H](CCCNC(=N)N)C(=O)N[C@@H](CCCCN)C(=O)N[C@@H](CCCNC(=N)N)C(=O)N[C@@H](CCC(N)=O)C(=O)N[C@@H](CCC(N)=O)C(N)=O)[C@@H](C)CC)[C@@H](C)CC)[C@@H](C)O)[C@@H](C)O)C(C)C)C(C)C [Melittin, reference compound]",A541 (red blood cell lysis),"[5]; control, 100% lysis with melittin alone",1.881
same,cell death (propidium iodide staining of nuclei and loss of cells),[6],~100%
C/C(C(N)=O)=C(\CCC(=O)O)C(=O)O [2-propionic-3-methylmaleamic acid],rate of maleamic acid cleavage compared,[7],"the same as that for 2,3-dimethylmaleamic acids"
